Results reported in ChEMBL document CHEMBL1142978, “Probing the anticancer activity of nucleoside analogues: a QSAR model approach using an internally consistent training set” (J Med Chem, 2007).

Test: Cytotoxicity against mouse L1210/0 cells after 48 hrs
Assay type: cell-based
Conditions: Mus musculus, L1210/0, 48 h
For `O=c1[nH]cnc2c1nnn2CC1CCC(CO)C1` (configuration not stated), the IC50 was > 200 µM. `O=C1O/C(=C\Cn2cc(F)c(=O)[nH]c2=O)C(OCc2ccccc2)=C1OCc1ccccc1` gave an IC50 of 5.1 µM. In the case of `Nc1nc2c(nc(Cl)n2COCCO)c(=O)[nH]1`, the IC50 is reported as > 200 µM. Work on `CC1=C(c2cn([C@H]3C[C@H](O)[C@@H](CO)O3)c(=O)[nH]c2=O)C(=O)c2ccccc2C1=O` yielded an IC50 of 68.8 µM. For `CC1(C)[C@@H](Cn2ccc(=O)[nH]c2=O)CC[C@@]1(C)CO`, the IC50 was > 200 µM. With `O=c1[nH]c(=O)n(COCCO)cc1F` the IC50 was > 200 µM. In the case of `Nc1nc(N)c2ncn([C@H]3CCCC[C@H]3CO)c2n1`, the IC50 is reported as > 200 µM. `C=C(Cl)c1cn([C@H]2C[C@H](O)[C@@H](CO)O2)c(=O)[nH]c1=O` showed an IC50 of 1.66 µM. For `Nc1ncnc2c1ncn2C[C@@H]1C[C@H](CO)c2ccccc21`, the IC50 was > 200 µM. For `C=C(Br)[C@H]1O[C@@H](n2cnc3c(N)ncnc32)[C@@H](O)[C@H]1O`, the IC50 was 25 µM. For `CC(C)(C)C#Cc1cn([C@@H]2O[C@H](CO)[C@@H](O)[C@@H]2O)c(=O)[nH]c1=O`, the IC50 was > 200 µM. For `O=c1[nH]c(=O)n(COCCO)cc1[N+](=O)[O-]`, the IC50 was > 200 µM. In the case of `Nc1nc(I)nc2c1ncn2COCCO`, the IC50 is reported as > 200 µM. `CC1(C)[C@@H](Cn2cnc3c(Cl)nc(N)nc32)CC[C@@]1(C)CO` showed an IC50 of 50 µM. In the case of `Nc1ncnc2c1ncn2CC1CCC(CO)C1` (configuration not stated), the IC50 is reported as > 200 µM. For `OC[C@H]1CCC[C@@H]1n1cnc2c(Cl)ncnc21`, the IC50 was > 200 µM. In the case of `Nc1ncnc2c1nnn2C1C[C@H](CO)[C@@H](CO)[C@@H]1CO` (some centres not stated), the IC50 is reported as > 200 µM.
